From article PMC10648349, “Aromatic Diboronic Acids as Effective KPC/AmpC Inhibitors” (Molecules, 2023)
In brackets after ≈: the same amount, converted by molar mass.

How the values were obtained:
[1] = test system: K. pneumoniae 81 KPC-3(+); assay: MIC of tested agent alone, microdilution; assay type: cell-based; conditions: Klebsiella pneumoniae; read-out: MIC of agent alone
Procedure: (§1) To examine the ability of tested agents to inhibit various carbapenemases and AmpC-enzymes, their synergy with antibiotics against β-lactamase-producing strains was assessed by checkerboard microdilution assay, with slight modification. Checkerboards were prepared in microtiter plates, with seven two-fold dilutions of β-lactams (1–64 mg/L) in the rows and three two-fold dilutions of tested agents and PBA (4–16 mg/L) in the columns. Tested agents’ concentrations were limited to the concentrations at which the newest commercially available BLIs (vaborbactam, relebactam, and avibactam) are used in susceptibility testing. Plates were inoculated and incubated as in the MIC microdilution assay. Parallel, MICs of tested agents and PBA alone were determined by the microdilution assay. Following the incubation, antibiotic MICs in the presence of each agent’s concentration were determined. Moreover, for the first well without growth found in each checkerboard row and column along the growth/non-growth interface, the fractional inhibitory concentration index (FICI) was calculated using the formula below:FICI = [(MIC of antibiotic in combination)/(MIC of antibiotic alone)] + [(MIC of the tested agent in combination)/(MIC of tested agent alone)].

[2] = test system: K. pneumoniae ATCC BAA-1705 KPC-2(+); assay: MIC of tested agent alone, microdilution; assay type: cell-based; conditions: Klebsiella pneumoniae, ATCCBAA1705; read-out: MIC of agent alone
Procedure: as §1

E. coli 77 CMY-2(+) = assay: MIC of tested agent alone, microdilution; assay type: cell-based; conditions: Escherichia coli; read-out: MIC of agent alone
Procedure: as §1

[3] = test system: P. aeruginosa MUW 700 AmpC(+); assay: MIC of tested agent alone, microdilution; assay type: cell-based; conditions: Pseudomonas aeruginosa; read-out: MIC of agent alone
Procedure: as §1

[4] = test system: K. pneumoniae 83 KPC-3(+), CTX-M-3(+); assay: MIC of tested agent alone, microdilution; assay type: cell-based; conditions: Klebsiella pneumoniae; read-out: MIC of agent alone
Procedure: as §1

E. coli 76 KPC-2(+) = assay: MIC of tested agent alone, microdilution; assay type: cell-based; conditions: Escherichia coli; read-out: MIC of agent alone
Procedure: as §1

[5] = test system: P. aeruginosa MUW 700 cAmpC-positive; assay: checkerboard microdilution, antibiotic plus tested agent; assay type: cell-based, Pseudomonas aeruginosa
Procedure: as §1
(§2) For calculations, all off-scale MICs were converted to the next-highest doubling concentration. Subsequently, both the average and the lowest FICI were interpreted. The interpretation was as follows: FICI ≤ 0.5, synergy; 0.5 < FICI ≤ 4, indifference and FICI > 4, antagonism. Primarily, examined combinations consisted of meropenem (Pol-Aura, Morag, Poland) plus tested agents against carbapenemases-producing strains and ceftazidime (Pol-Aura, Morag, Poland) plus tested agents against AmpC-producing strains. For agents that reduced meropenem MIC at least 4-fold for at least two tested strains, similar assays were performed with imipenem (Pol-Aura, Morag, Poland) and ertapenem (Pol-Aura, Morag, Poland).

C. krusei ATCC 6258 = assay: antifungal activity (disc-diffusion, MIC, MFC); assay type: cell-based, Candida krusei; conditions: Pichia kudriavzevii, ATCC6258; for MIC: fluconazole by Etest
Summary of the method: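 EUCAST/CLSI methods: disc diffusion at 0.4 mg compound/disc, broth MIC, then MBC (bacteria) or MFC (yeast). DMSO vehicle.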

KPC producers = assay: microdilution with carbapenems; assay type: cell-based
Procedure: as §1, §2

[6] = test system: K. pneumoniae 83 KPC-3-positive, CTX-M-3-positive; assay: checkerboard microdilution, antibiotic plus tested agent; assay type: cell-based, Klebsiella pneumoniae
Summary of the method: (§3)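 Read-out is the antibiotic MIC with agent present, plus FICI = combined/alone MIC ratios summed for both partners. Meropenem pairs served for carbapenemase strains and ceftazidime pairs for the AmpC strain. Agent or PBA was tested at 4–16 mg/L.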

[7] = test system: K. pneumoniae 81 KPC-3-positive; assay: as above; assay type: cell-based, Klebsiella pneumoniae
Summary of the method: as §3

[8] = test system: K. pneumoniae ATCC BAA-1705 KPC-2-positive; assay: as above; assay type: cell-based, Klebsiella pneumoniae
Summary of the method: as §3

[9] = test system: E. coli 76 KPC-2-positive; assay: as above; assay type: cell-based, Escherichia coli
Summary of the method: as §3

## OB(O)c1ccsc1B(O)O [5a, thiophene-2,3-diboronic acid]
[1]
  MIC: > 400 µg/mL
[2]
  MIC: > 400 µg/mL
E. coli 77 CMY-2(+)
  MIC: > 400 µg/mL
[3]
  MIC: > 400 µg/mL
[4]
  MIC: > 400 µg/mL
E. coli 76 KPC-2(+)
  MIC: > 400 µg/mL
[5]
  Average FICI with ceftazidime: 0.30
  Interpretation of the average FICI with ceftazidime: S (FICI ≤ 0.5, synergy)
  Interpretation of the lowest FICI with ceftazidime: S (FICI ≤ 0.5, synergy)
  The lowest FICI with ceftazidime: 0.15
C. krusei ATCC 6258
  MIC: > 400 µg/mL

## OB(O)c1ccccc1S [7c, 2-mercaptophenylboronic acid]
[1]
  MIC: > 200 µg/mL
[2]
  MIC: > 200 µg/mL
E. coli 77 CMY-2(+)
  MIC: > 200 µg/mL
[3]
  MIC: > 200 µg/mL
[4]
  MIC: > 200 µg/mL
E. coli 76 KPC-2(+)
  MIC: > 200 µg/mL
C. krusei ATCC 6258; 0.4 mg per disc, 9 mm disc (fluconazole 0.025 mg, 6 mm disc), - no zone, read-out: Diameter of inhibition zone
  zone of inhibition at 0.4 mg/disc: 16 mm
C. krusei ATCC 6258
  MIC: 50 µg/mL (≈ 325 µM)

## OB(O)c1cccc(F)c1B(O)O [3b]
[1]
  MIC: > 400 µg/mL
[2]
  MIC: > 400 µg/mL
E. coli 77 CMY-2(+)
  MIC: > 400 µg/mL
[3]
  MIC: > 400 µg/mL
[4]
  MIC: > 400 µg/mL
E. coli 76 KPC-2(+)
  MIC: > 400 µg/mL
[5]
  Average FICI with ceftazidime: 0.60
  Interpretation of the average FICI with ceftazidime: I (0.5 < FICI ≤ 4, indifference)
  Interpretation of the lowest FICI with ceftazidime: S (FICI ≤ 0.5, synergy)
  The lowest FICI with ceftazidime: 0.27
C. krusei ATCC 6258
  MIC: 100 µg/mL (≈ 544 µM)

## OB(O)c1cccc(B(O)O)c1 [2a]
[1]
  MIC: > 400 µg/mL
[2]
  MIC: > 400 µg/mL
E. coli 77 CMY-2(+)
  MIC: > 400 µg/mL
[3]
  MIC: > 400 µg/mL
[4]
  MIC: > 400 µg/mL
E. coli 76 KPC-2(+)
  MIC: > 400 µg/mL
[5]
  Average FICI with ceftazidime: 0.18
  Interpretation of the average FICI with ceftazidime: S (FICI ≤ 0.5, synergy)
  Interpretation of the lowest FICI with ceftazidime: S (FICI ≤ 0.5, synergy)
  The lowest FICI with ceftazidime: 0.14
C. krusei ATCC 6258
  MIC: > 400 µg/mL

## OB(O)c1ccc(B(O)O)cc1 [1a]
KPC producers; agent 4 mg/L
  carbapenems' MIC reduction, up to: ≤ 2 fold
KPC producers; agent 8 mg/L
  carbapenems' MIC reduction, up to: up to 8 fold
KPC producers; all KPC producers
  ertapenem potentiation better than PBA, by up to: up to 8 fold
[1]
  MIC: > 400 µg/mL
[2]
  MIC: > 400 µg/mL
E. coli 77 CMY-2(+)
  MIC: > 400 µg/mL
[3]
  MIC: > 400 µg/mL
[4]
  MIC: > 400 µg/mL
E. coli 76 KPC-2(+)
  MIC: > 400 µg/mL
[6]
  Average FICI with ERT: 0.35
  Average FICI with IMI: 0.35
  Average FICI with MEM: 0.39
  The lowest FICI with ERT: 0.26
  The lowest FICI with IMI: 0.26
  The lowest FICI with MEM: 0.15
[7]
  Average FICI with ERT: 0.20
  Average FICI with IMI: 0.22
  Average FICI with MEM: 0.24
  The lowest FICI with ERT: 0.08
  The lowest FICI with IMI: 0.15
  The lowest FICI with MEM: 0.08
[8]
  Average FICI with ERT: 0.43
  Average FICI with IMI: 0.43
  Average FICI with MEM: 0.30
  The lowest FICI with ERT: 0.27
  The lowest FICI with IMI: 0.27
  The lowest FICI with MEM: 0.15
[5]
  Average FICI with ceftazidime: 0.16
  Interpretation of the average FICI with ceftazidime: S (FICI ≤ 0.5, synergy)
  Interpretation of the lowest FICI with ceftazidime: S (FICI ≤ 0.5, synergy)
  The lowest FICI with ceftazidime: 0.08
C. krusei ATCC 6258
  MIC: > 400 µg/mL
[9]
  Average FICI with ERT: 0.22
  Average FICI with IMI: 0.30
  Average FICI with MEM: 0.31
  The lowest FICI with ERT: 0.15
  The lowest FICI with IMI: 0.15
  The lowest FICI with MEM: 0.15
